Measurements from patent publication US11078192B2, “Aromatic acetylene or aromatic ethylene compound, intermediate, preparation method, pharmaceutical composition and use thereof” (GUANGZHOU MAXINOVEL PHARMACEUTICALS CO., LTD., priority 2016, dated 2021).

Biological target: PD-1/PD-L1 (Homo sapiens (Human), UniProt Q9NZQ7)
Assay: Homogeneous Time-Resolved Fluorescence (HTRF) binding assay
Settings: CisBio kit #64CUS000C-1, read-out: IC50 of compounds binding to PD-1/PD-L1
Experimental: Homogeneous Time-Resolved Fluorescence (HTRF) binding assay was used to determine the binding activity of the compound of the present invention to PD-1/PD-L1.
The purchased kit (CisBio, #64CUS000C-1) contained reagents required for assays such as PD-1, PD-L1, anti-tag1-Eu, Anti-tag2-XL665, Dilute Buffer, and Detection Buffer.
1. The compound was formulated to 10 concentrations with a 3-fold gradient with 100% DMSO.
2. The solution of the compound in DMSO was added to Dilute Buffer, mixed thoroughly, then transferred to a 96-well plate.
3. PD-L1 was diluted with Dilute Buffer, then added to the above 96-well plate.
4. PD-1 was diluted with Dilute Buffer and added to the above 96-well plate, which was then incubated at room temperature for 30 minutes.
5. A portion of anti-tag1-Eu and a portion of anti-tag2-XL665 were added to Detection Buffer, mixed thoroughly and transferred to the above 96-well plate.
6. The mixture in the above 96-well plate was incubated at room temperature for 1 to 24 hours.
7. HTRF values were read with Envision.

Sequence of PD-1/PD-L1 (Q9NZQ7 19-238): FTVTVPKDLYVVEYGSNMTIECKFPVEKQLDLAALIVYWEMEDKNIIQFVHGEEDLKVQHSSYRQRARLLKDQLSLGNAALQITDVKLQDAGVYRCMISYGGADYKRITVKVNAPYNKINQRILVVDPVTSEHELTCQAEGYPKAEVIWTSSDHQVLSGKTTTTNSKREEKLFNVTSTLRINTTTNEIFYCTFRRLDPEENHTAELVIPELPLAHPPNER

| Compound | IC50 [nM] |
| --- | --- |
| Cc1c(/C=C/c2ccc(CN3CCC[C@H]3CO)cn2)cccc1-c1ccccc1 [Compound 16, (S,E)-(1-((6-(2-(2-Methylbiphenyl-3-yl)vinyl)pyridin-3-yl)methyl)pyrrolidin-2-yl)methanol] | 590 |
| COc1cc(C#Cc2cccc(-c3ccccc3)c2C)cc(OC)c1CN1CCC[C@H]1CO [Compound 2, (S)-(1-(2,6-Dimethoxy-4-((2-methyl-biphenyl-3-yl)ethynyl)benzyl)pyrrolidin-2-yl)methanol] | 1340 |
| Cc1c(/C=C/c2ccc(CN3CCC[C@H]3CO)cc2Cl)cccc1-c1ccccc1 [Compound 11, (S,E)-(1-(3-Chloro-4-(2-(2-methylbiphenyl-3-yl)vinyl)benzyl)pyrrolidin-2-yl)methanol] | 460 |
| Cc1cc(CN2CCC[C@H]2CO)ccc1/C=C/c1cccc(-c2ccccc2)c1C [Compound 12] | 410 |
| Cc1c(/C=C/c2cc(CN3CCC[C@H]3CO)ccc2C(F)(F)F)cccc1-c1ccc2c(c1)OCCO2 [Compound 67, (S,E)-(1-(3-(3-(2,3-Dihydrobenzo[b][1,4]dioxin-6-yl)-2-methylstyryl)-4-(trifluoromethyl)benzyl)pyrrolidin-2-yl)methanol] | 2400 |
| COc1nc(/C=C/c2cccc(-c3ccccc3)c2C)ccc1CNC1CCCCC1NC(C)=O (centres unmarked) [Compound 42] | 1100 |
| COc1cc(/C=C/c2cccc(-c3ccccc3)c2C)cc(OC)c1CNc1cccc(O)c1C(=O)O [Compound 53, (E)-2-(2,6-Dimethoxy-4-(2-(2-methylbiphenyl-3-yl)vinyl)benzylamino)-6-hydroxybenzoic Acid] | > 10000 |
| COc1cc(/C=C/c2cccc(-c3ccccc3)c2C#N)cc(OC)c1CN1CCC[C@H]1CO [Compound 14, (S,E)-3-(4-((2-Hydroxymethylpyrrolidin-1-yl)methyl)-3,5-dimethoxystyryl)biphenyl-2-carbonitrile] | 390 |
| (S,E)-2-(3-Chloro-4-(2-(2-methylbiphenyl-3-yl)vinyl)benzylamino)-3-hydroxypropanamide [Compound 33] | 480 |
| COc1cc(/C=C/c2cncc(-c3ccccc3)c2C)cc(OC)c1CN[C@@H](CO)C(=O)O [Compound 63, (S,E)-2-(2,6-dimethoxy-4-(2-(4-methyl-5-phenylpyridin-3-yl)vinyl)benzylamino)-3-hydroxypropanoic Acid] | 3900 |
| Cc1cc(CN2CCCC(O)C2CO)ccc1/C=C/c1cccc(-c2ccccc2)c1C (centres unmarked) [Compound 22, (E)-2-Hydroxymethyl-1-(3-methyl-4-(2-(2-methylbiphenyl-3-yl)vinyl)benzyl)piperidin-3-ol] | 550 |
| (R,E)-2-(3-Chloro-4-(2-(2-methylbiphenyl-3-yl)vinyl)benzylamino)-3-hydroxypropionamide [Compound 34] | 340 |
| Cc1cc(CN2CCC[C@H](O)[C@@H]2C(N)=O)ccc1/C=C/c1cccc(-c2ccccc2)c1C [Compound 26, (2R,3S,E)-3-Hydroxy-1-(3-methyl-4-(2-(2-methylbiphenyl-3-yl)vinyl)benzyl)piperidin-2-carboxamide] | 1300 |
| COc1cc(/C=C/c2cccc(-c3cccc(CO)c3)c2C)cc(OC)c1CNC(C)(CO)C(=O)O (centres unmarked) [Compound 52, (E)-2-(2,6-Dimethoxy-4-(2-(3′-hydroxymethyl-2-methylbiphenyl-3-yl)vinyl)benzylamino)-3-hydroxy-2-methylpropionic Acid] | > 10000 |
| Cc1c(C#Cc2ccc(CN3CCCC(O)C3C(=O)O)cc2F)cccc1-c1ccccc1 (centres unmarked) [Compound 29, 1-(3-Fluoro-4-((2-methylbiphenyl-3-yl)ethynyl)benzyl)-3-hydroxypiperidin-2-carboxylic Acid] | 2820 |
| COC(=O)C1C(O)CCCN1Cc1c(OC)cc(/C=C/c2cccc(-c3ccccc3)c2C)cc1OC (centres unmarked) [Compound 25, (E)-Methyl 1-(2,6-dimethoxy-4-(2-(2-methylbiphenyl-3-yl)vinyl)benzyl)-3-hydroxypiperidin-2-carboxylate] | 5950 |
| Cc1cc(CN2CCCC(O)C2C(=O)O)ccc1/C=C/c1cccc(-c2ccccc2)c1C (centres unmarked) [Compound 19, (E)-3-Hydroxy-1-(3-methyl-4-(2-(2-methylbiphenyl-3-yl)vinyl)benzyl)piperidin-2-carboxylic Acid] | 330 |
| COc1ccc(-c2cccc(/C=C/c3cc(OC)c(CNc4cccc(O)c4C(=O)O)c(OC)c3)c2C)cc1 [Compound 54, (E)-2-(2,6-Dimethoxy-4-(2-(4′-methoxy-2-methylbiphenyl-3-yl)vinyl)benzylamino)-6-hydroxybenzoic Acid] | > 10000 |
| Cc1c(/C=C/c2ccc(CNCCO)cn2)cccc1-c1ccc2c(c1)OCCO2 [Compound 17, (E)-2-((6-(3-(2,3-Dihydrobenzo[b][1,4]dioxin-6-yl)-2-methylstyryl)pyridin-3-yl)methylamino)ethanol] | 310 |

Stronger by IC50, values ahead:

| IC50 [nM] | Compound |
| --- | --- |
| 48 | COc1cc(/C=C/c2cccc(-c3ccccc3)c2C)cc(OC)c1CN[C@](C)(CO)C(=O)O [Compound 46, (R,E)-2-(2,6-Dimethoxy-4-(2-(2-methylbiphenyl-3-yl)vinyl)benzylamino)-3-hydroxy-2-methylpropanoic Acid] |
| 36 | Cc1cc(CNC(CO)C(=O)O)cnc1/C=C/c1cccc(-c2ccc3c(c2)OCCO3)c1C (centres unmarked) [Compound 69, (E)-2-((6-(3-(2,3-Dihydrobenzo[b][1,4]dioxin-6-yl)-2-methylstyryl)-5-methylpyridin-3-yl)methylamino)-3-hydroxypropanoic Acid] |
| 150 | COc1cc(/C=C/c2cccc(-c3ccccc3)c2C)cc(OC)c1CNCCNC(C)=O [Compound 6, (E)-N-(2-((2,6-Dimethoxy-4-(2-(2-methylbiphenyl-3-yl)vinyl)benzyl)amino)ethyl)acetamide] |
| 70 | COc1cc(/C=C/c2cccc(-c3ccc4c(c3)OCCO4)c2C)cc(OC)c1CNC(C)(CO)C(=O)O (centres unmarked) [Compound 57, (E)-2-(4-(3-(2,3-Dihydrobenzo[b][1,4]dioxin-6-yl)-2-methylstyryl)-2,6-dimethoxybenzylamino)-3-hydroxy-2-methylpropanoic Acid] |
| 100 | COc1cc(/C=C/c2cccc(-c3ccccc3)c2C)cc(OC)c1CNCC(=O)O [Compound 37, (E)-2-(2,6-Dimethoxy-4-(2-(2-methylbiphenyl-3-yl)vinyl)benzylamino)acetic Acid] |
| 120 | COc1cc(/C=C/c2cccc(-c3ccc4c(c3)OCCO4)c2C)ccc1CN[C@@H](CO)C(=O)O [Compound 62, (S,E)-2-(4-(3-(2,3-Dihydrobenzo[b][1,4]dioxin-6-yl)-2-methylstyryl)-2-methoxybenzylamino)-3-hydroxypropanoic Acid] |
| 230 | Cc1cc(CN[C@H](CO)C(=O)O)ccc1/C=C/c1cccc(-c2ccccc2)c1C [Compound 38, (R,E)-2-(3-Methyl-4-(2-(2-methylbiphenyl-3-yl)vinyl)benzylamino)-3-hydroxypropionic Acid] |
| 59 | COc1cc(/C=C/c2cccc(-c3ccccc3)c2C)cc(OC)c1CNC(C)(CO)C(=O)O (centres unmarked) [Compound 44, (E)-2-(2,6-Dimethoxy-4-(2-(2-methylbiphenyl-3-yl)vinyl)benzylamino)-3-hydroxy-2-methylpropanoic Acid] |
| 280 | COc1cc(/C=C/c2cccc(-c3ccccc3)c2C)cc(OC)c1CNCCO [Compound 4, (E)-2-((2,6-Dimethoxy-4-(2-(2-methylbiphenyl-3-yl)vinyl)benzyl)amino)ethan-1-ol] |
| 130 | COc1cc(/C=C/c2cccc(-c3ccccc3)c2C)cc(OC)c1CNC(CCO)C(=O)O (centres unmarked) [Compound 43, (E)-2-(2,6-Dimethoxy-4-(2-(2-methylbiphenyl-3-yl)vinyl)benzylamino)-4-hydroxybutanoic Acid] |
